Data reported in US5215971A, “Antiviral pharmaceutical composition comprising 5-substituted pyrimidine nucleosides” (priority 1986, dated 1993).
pIC50: −log10 of the molar value. Read-outs that look alike come from different tables or passages of the source.

Assays:
[1] = system: HIV (HTLV-IIIB) in H9 cells; experiment: Inhibition of human immunodeficiency virus multiplication in cell culture (HIV infection of H9 cells); type: cell-based; conditions: Human immunodeficiency virus 1, 6-7 days, HIV antigen containing cells by immunofluorescence, read-out: Concentration for 50% inhibition (IC50) of human immunodeficiency virus multiplication in cell culture
Experimental: H9 cells, 10^5 cells per well on a 24 well plate, suspended in 2 ml RPMI-medium containing 10% fetal calf serum, 100 μg/ml penicillin, 10 μg/ml streptomycin sulfate and 2 μg/ml polybrene are exposed to HIV (HTLV-IIIB) and different concentrations of the inhibiting compounds. The plates are incubated at 37° C. in 5% CO2 for 6-7 days. The contents in each well is then homogenized with a pipette and transferred to a centrifuge tube. After centrifugation for 10 min at 1500 rpm the supernatent is removed and the cell pellet is analyzed by fixing in methanol on glass plates. Human HIV positive serum diluted 1:80 or 1:160 is added and incubated for 30 min at 37°. The plate is then washed with phosphate-buffered saline (PBS) containing Ca^2+ and Mg^2+. Sheep antihuman conjugate (FITC) is added and after a new incubation the plate is again washed with PBS. Contrast staining is done with Evans blue and after drying the frequency of HIV antigen containing cells is determined in a microscope.

[2] = target: Duck hepatitis virus polymerase (Duck hepatitis B virus, UniProt P03162); experiment: Inhibition of duck hepatitis B virus polymerase (reverse transcriptase) using DNA and RNA templates; type: biochemical; conditions: compounds used as 5'-triphosphates
Sequence of Duck hepatitis virus polymerase (P03162 whole entry): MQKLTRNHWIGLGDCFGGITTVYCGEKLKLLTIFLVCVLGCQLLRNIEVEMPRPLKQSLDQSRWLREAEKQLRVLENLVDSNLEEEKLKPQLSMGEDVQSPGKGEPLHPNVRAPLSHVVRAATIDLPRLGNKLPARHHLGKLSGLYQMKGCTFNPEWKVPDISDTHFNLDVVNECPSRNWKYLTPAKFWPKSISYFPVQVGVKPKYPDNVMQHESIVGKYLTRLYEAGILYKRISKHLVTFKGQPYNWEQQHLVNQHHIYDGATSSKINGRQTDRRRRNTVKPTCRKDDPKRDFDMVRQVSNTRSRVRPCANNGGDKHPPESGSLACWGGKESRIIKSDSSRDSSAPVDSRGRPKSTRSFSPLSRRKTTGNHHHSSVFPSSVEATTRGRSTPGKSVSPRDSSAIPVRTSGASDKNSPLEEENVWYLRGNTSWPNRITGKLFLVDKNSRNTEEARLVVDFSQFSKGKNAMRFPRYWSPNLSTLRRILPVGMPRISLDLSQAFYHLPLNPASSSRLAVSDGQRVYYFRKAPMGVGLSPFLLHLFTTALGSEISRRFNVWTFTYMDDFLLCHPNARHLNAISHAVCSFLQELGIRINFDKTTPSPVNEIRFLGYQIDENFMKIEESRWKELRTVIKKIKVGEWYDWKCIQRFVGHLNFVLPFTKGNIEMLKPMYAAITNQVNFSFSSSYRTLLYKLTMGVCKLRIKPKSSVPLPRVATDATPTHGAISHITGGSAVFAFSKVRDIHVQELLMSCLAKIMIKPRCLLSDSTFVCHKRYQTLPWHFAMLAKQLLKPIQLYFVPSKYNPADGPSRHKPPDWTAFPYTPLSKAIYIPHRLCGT
From the text: (§1) There is no cell culture assay which can be used to determine the efficiacy of compounds against hepatitis B virus. However, the hepatitis B virus encodes a reverse transcriptase, Summer and Mason, Cell 29 (1982) 403-415, obligatory for hepatitis b virus replication. This enzyme, which is also a consituent of the hepatitis B virus particles, can be used to evaluate the inhibitory activity against hepatitis B virus of nucleoside analogues provided that these compounds are used as their metabolic products, 5'-triphosphates. […] The hepatitis B virus reverse transcriptase can, as all reverse transcriptases, use both RNA and DNA templates, and included in Table 2 is also the inhibition of duck hepatitis B virus polymerase using both DNA and RNA templates.
(§2) The assays were performed as described in Tao et al. Hepatitis B virus was for a long time considered to be a DNA virus with a viral DNA polymerase being part of the virus particles. However, it was discovered that the hepatitis B virus DNA polymerase activity was due to a reverse transcriptase and that this virus should be regarded as a retrovirus which, in contrast to other retroviruses, uses its DNA phase as genetic material in the virus particles. Summers and Mason. Hepatitis B viruses are therefore not related to DNA viruses such as herpes-viruses or adeno-virus, but rather are related to retroviruses such as HIV.

[3] = target: Hepatitis B virus polymerase (Hepatitis B virus genotype D subtype ayw, UniProt P03156); experiment: Inhibition of hepatitis B virus polymerase (reverse transcriptase) using a DNA template; type: biochemical; conditions: compounds used as 5'-triphosphates
Sequence of Hepatitis B virus polymerase (P03156 whole entry): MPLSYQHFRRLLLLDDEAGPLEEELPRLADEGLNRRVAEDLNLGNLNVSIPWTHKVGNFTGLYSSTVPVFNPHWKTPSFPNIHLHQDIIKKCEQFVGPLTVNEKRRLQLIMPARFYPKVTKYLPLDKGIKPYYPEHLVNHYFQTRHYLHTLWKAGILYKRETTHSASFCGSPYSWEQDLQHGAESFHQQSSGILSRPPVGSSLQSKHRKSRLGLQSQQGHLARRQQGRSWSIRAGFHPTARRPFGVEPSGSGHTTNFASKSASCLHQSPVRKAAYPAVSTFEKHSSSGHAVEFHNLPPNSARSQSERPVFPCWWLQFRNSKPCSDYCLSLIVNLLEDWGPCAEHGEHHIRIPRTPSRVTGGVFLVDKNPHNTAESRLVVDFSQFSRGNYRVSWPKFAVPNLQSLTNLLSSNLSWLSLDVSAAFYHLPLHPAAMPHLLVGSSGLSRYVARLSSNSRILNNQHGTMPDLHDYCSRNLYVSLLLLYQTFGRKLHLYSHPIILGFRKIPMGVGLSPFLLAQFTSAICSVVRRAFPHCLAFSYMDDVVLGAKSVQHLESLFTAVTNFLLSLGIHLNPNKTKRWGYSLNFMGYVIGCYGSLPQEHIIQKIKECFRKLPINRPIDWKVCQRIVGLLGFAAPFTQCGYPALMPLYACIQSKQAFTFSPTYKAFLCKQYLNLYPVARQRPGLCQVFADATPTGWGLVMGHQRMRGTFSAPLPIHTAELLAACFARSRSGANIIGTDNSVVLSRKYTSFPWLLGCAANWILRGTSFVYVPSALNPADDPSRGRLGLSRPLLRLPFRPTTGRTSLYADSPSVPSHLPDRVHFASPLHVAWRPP
From the text: as §1, §2

[4] = monkeys, Tao et al., cited from earlier work; for absorption: oral; for Elimination half-lives: range given for both compounds together
[5] = DNA template, read-out: IC50, duck hepatitis virus polymerase, DNA template
[6] = RNA template, read-out: IC50, duck hepatitis virus polymerase, RNA template

Row | pIC50 [1] | pIC50 [2, 5] | pIC50 [2, 6] | pIC50 [3] | Structure (SMILES) | absorption [4] | Elimination half-lives [4] [h]
1 | > 6.00 | 6.47 | 6.27 | 6.62 | CC=Cc1cn([C@@H]2O[C@H](CO)[C@@H](O)[C@@H]2O)c(=O)[nH]c1=O [1-(β-D-arabinofuranosyl)-5-(1-propenyl)-uracil] | moderately well absorbed | 1.2 to 1.8
2 | 5.70 | – | – | – | CCc1cn([C@@H]2O[C@H](CO)[C@@H](O)[C@@H]2O)c(=O)[nH]c1=O [1-(β-D-arabinofuranosyl)-5-ethyluracil] | – | –
3 | 5.70 | – | – | – | C=C(C)c1cn([C@@H]2O[C@H](CO)[C@@H](O)[C@@H]2O)c(=O)[nH]c1=O [1-(β-D-arabinofuranosyl)-5-isopropenyluracil] | – | –
4 | 5.00 to 6.00 | – | – | – | C=C(C)c1cn([C@H]2C[C@H](O)[C@@H](CO)O2)c(=O)[nH]c1=O [5-(1-isopropenyl)-2'-deoxyuridine] | – | –
5 | > 6.00 | 6.96 | 6.82 | 7.00 | CC=Cc1cn([C@H]2C[C@H](O)[C@@H](CO)O2)c(=O)[nH]c1=O [5-(1-propenyl)-2'-deoxyuridine] | moderately well absorbed | 1.2 to 1.8
6 | – | 6.05 | 6.13 | 6.60 | CCc1cn([C@H]2C[C@H](O)[C@@H](CO)O2)c(=O)[nH]c1=O [5-Ethyl-2'-deoxythymidine] | – | –
7 | > 6.00 | – | – | – | O=c1[nH]c(=O)n([C@H]2C[C@H](O)[C@@H](CO)O2)cc1C1CC1 [5-cyclopropyl-2'-deoxyuridine] | – | –
8 | 6.00 | – | – | – | CCc1cn([C@H]2C[C@H](O)[C@@H](CO)O2)c(=O)[nH]c1=O [5-ethyl-2'-deoxyuridine] | – | –
9 | > 6.00 | 6.30 | 6.62 | 6.60 | O=c1[nH]c(=O)n([C@H]2C[C@H](O)[C@@H](CO)O2)cc1CO [5-hydroxymethyl-2'-deoxyuridine] | – | –
